Values of other authors, collected in patent US20250025455A1, “CONTROLLED-RELEASE NICOTINE CHEWING GUM” (Altria Client Services LLC, priority 2023, published 2025).

Conditions: free base (non-protonated) nicotine

Question: With `CN1CCCC1c1cccnc1` (stereo not shown) [Free-base nicotine, 3-(1-methyl-2-pyrrolidinyl) pyridine] as the molecule, how does the pKa value read?
Answer: about 8
